US10072003B2, “Tetrahydronaphthyridine derivatives as mGluR2-negative allosteric modulators, compositions, and their use” (Merck Sharp & Dohme Corp., priority 2014, dated 2018)

Molecular target: recombinant human mGluR2 (Homo sapiens (Human), UniProt Q14416)
Experiment: FLIPR Ca2+ mobilization antagonist assay in CHO dhfr- cells expressing human mGluR2 and Gα16
Format: cell-based
Conditions: antagonist response after addition of 2,500 nM glutamate, Fluo-4 AM, FLIPR384
Procedure: Antagonist constants are determined as follows. The compounds of the invention were tested in a fluorescence laser imaging plate reader based assay. This assay is a common functional assay to monitor Ca2+ mobilization in whole cells expressing recombinant receptor coupled with a promiscuous G-protein. CHO dhfr-cells stably expressing recombinant human mGluR2 and Gα16 loaded with Fluo-4 AM (Invitrogen, Carlsbad Calif.) were treated with various concentrations of antagonists of compounds and the Ca2+ response was monitored on a FLIPR384 (Molecular Devices, Sunnydale Calif.) for agonist activity. Then 2,500 nM glutamate was added and the antagonist response was monitored. The maximum calcium response at each concentration of compound for agonist or antagonist were plotted as dose responses and the curves were fitted with a four parameter logistic equation giving IC50 and Hill coefficient using the iterative non linear curve fitting software ADA (Merck & Co). Data in the following table represent activities in the antagonist assay.

Chain of recombinant human mGluR2 (Q14416 19-872): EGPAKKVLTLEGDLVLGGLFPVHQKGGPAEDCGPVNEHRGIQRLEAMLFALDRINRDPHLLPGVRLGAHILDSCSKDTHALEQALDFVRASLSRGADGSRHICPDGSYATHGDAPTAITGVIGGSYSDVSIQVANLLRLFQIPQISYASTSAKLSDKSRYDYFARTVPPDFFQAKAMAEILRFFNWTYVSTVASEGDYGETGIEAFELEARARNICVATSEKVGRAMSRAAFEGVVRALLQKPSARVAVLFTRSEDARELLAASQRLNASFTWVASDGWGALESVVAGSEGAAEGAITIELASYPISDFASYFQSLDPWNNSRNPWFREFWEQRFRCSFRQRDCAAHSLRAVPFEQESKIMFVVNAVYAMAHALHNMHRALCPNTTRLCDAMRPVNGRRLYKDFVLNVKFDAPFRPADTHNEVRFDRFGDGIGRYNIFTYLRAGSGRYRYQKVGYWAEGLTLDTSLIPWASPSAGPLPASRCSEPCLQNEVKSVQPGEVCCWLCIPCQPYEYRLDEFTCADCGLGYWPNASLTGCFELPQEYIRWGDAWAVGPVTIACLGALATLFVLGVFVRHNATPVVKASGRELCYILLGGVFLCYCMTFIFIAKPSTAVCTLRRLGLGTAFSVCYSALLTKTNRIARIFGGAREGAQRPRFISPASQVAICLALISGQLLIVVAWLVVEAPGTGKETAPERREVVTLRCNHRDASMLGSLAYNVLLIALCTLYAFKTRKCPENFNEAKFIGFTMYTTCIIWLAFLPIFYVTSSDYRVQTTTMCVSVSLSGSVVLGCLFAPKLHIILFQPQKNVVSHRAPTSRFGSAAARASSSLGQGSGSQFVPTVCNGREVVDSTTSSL

| SMILES | IC50 [nM] |
| --- | --- |
| NC(=O)c1cccc(CN2CCc3c(-c4ccc(F)cc4)cc(C(N)=O)nc3C2)c1 [Example 2-1, 7-(3-carbamoylbenzyl)-4-(4-fluorophenyl)-5,6,7,8-tetrahydro-1,7-naphthyridine-2-carboxamide] | 52.7 |
| NC(=O)c1cc(-c2ccc(F)cc2)c2c(n1)CN(Cc1ccccc1C(N)=O)CC2 [Example 2-2, 7-(2-carbamoylbenzyl)-4-(4-fluorophenyl)-5,6,7,8-tetrahydro-1,7-naphthyridine-2-carboxamide] | 28.2 |
| NC(=O)c1ccc(CN2CCc3c(-c4ccc(F)cc4)cc(C(N)=O)nc3C2)cc1 [Example 2-3, 7-(4-carbamoylbenzyl)-4-(4-fluorophenyl)-5,6,7,8-tetrahydro-1,7-naphthyridine-2-carboxamide] | 117 |
| NC(=O)c1cc(-c2ccc(F)c(F)c2)c2c(n1)CN(Cc1ccnc(C(F)(F)F)c1)CC2 [Example 2-4, 4-(3,4-difluorophenyl)-7-{[2-(trifluoromethyl)pyridin-4-yl]methyl}-5,6,7,8-tetrahydro-1,7-naphthyridine-2-carboxamide] | 20.4 |
| NC(=O)c1cc(-c2cnn(C(F)F)c2)c2c(n1)CN(Cc1ccnc(C(F)(F)F)c1)CC2 [Example 2-5, 4-[1-(difluoromethyl)-1H-pyrazol-4-yl]-7-{[2-(trifluoromethyl)pyridin-4-yl]methyl}-5,6,7,8-tetrahydro-1,7-naphthyridine-2-carboxamide] | 30.3 |
| CS(=O)(=O)c1cccc(CN2CCc3c(-c4ccc(F)cc4)cc(C(N)=O)nc3C2)c1 [Example 2-6, 4-(4-fluorophenyl)-7-[3-(methylsulfonyl)benzyl]-5,6,7,8-tetrahydro-1,7-naphthyridine-2-carboxamide] | 23 |
| Cc1nonc1CN1CCc2c(-c3ccc(F)cc3F)cc(C(N)=O)nc2C1 [Example 2-7, 4-(2,4-difluorophenyl)-7-[(4-methyl-1,2,5-oxadiazol-3-yl)methyl]-5,6,7,8-tetrahydro-1,7-naphthyridine-2-carboxamide] | 7.6 |
| NC(=O)c1cc(-c2cccc(C(F)(F)F)c2)c2c(n1)CN(Cc1ccnc(C(F)(F)F)c1)CC2 [Example 2-8, 4-[3-(trifluoromethyl)phenyl]-7-{[2-(trifluoromethyl)pyridin-4-yl]methyl}-5,6,7,8-tetrahydro-1,7-naphthyridine-2-carboxamide] | 188 |
| NC(=O)c1cc(-c2cnn(C(F)F)c2)c2c(n1)CN(Cc1ccnc(C3CC3)c1)CC2 [Example 2-9, 7-[(2-cyclopropylpyridin-4-yl)methyl]-4-[1-(difluoromethyl)-1H-pyrazol-4-yl]-5,6,7,8-tetrahydro-1,7-naphthyridine-2-carboxamide] | 10.8 |
| COc1cc(F)ccc1-c1cc(C(N)=O)nc2c1CCN(Cc1ccnc(C3CC3)c1)C2 [Example 2-10, 7-[(2-cyclopropylpyridin-4-yl)methyl]-4-(4-fluoro-2-methoxyphenyl)-5,6,7,8-tetrahydro-1,7-naphthyridine-2-carboxamide] | 40.9 |
| NC(=O)c1cc(-c2ccc(F)cc2Cl)c2c(n1)CN(Cc1ccnc(OC(F)F)c1)CC2 [Example 2-11, 4-(2-chloro-4-fluorophenyl)-7-{[2-(difluoromethoxy)pyridin-4-yl]methyl}-5,6,7,8-tetrahydro-1,7-naphthyridine-2-carboxamide] | 10.4 |
| NC(=O)c1cc(-c2cnn(C(F)F)c2)c2c(n1)CN(Cc1ccnc(OC(F)F)c1)CC2 [Example 2-12, 7-{[2-(difluoromethoxy)pyridin-4-yl]methyl}-4-[1-(difluoromethyl)-1H-pyrazol-4-yl]-5,6,7,8-tetrahydro-1,7-naphthyridine-2-carboxamide] | 8.5 |
| CS(=O)(=O)c1cccc(CN2CCc3c(-c4ccccc4F)cc(C(N)=O)nc3C2)c1 [Example 2-13, 4-(2-fluorophenyl)-7-[3-(methylsulfonyl)benzyl]-5,6,7,8-tetrahydro-1,7-naphthyridine-2-carboxamide] | 47.8 |
| Cc1cc(-c2cc(C(N)=O)nc3c2CCN(Cc2ccnc(C(F)(F)F)c2)C3)ccn1 [Example 2-14, 4-(2-methylpyridin-4-yl)-7-{[2-(trifluoromethyl)pyridin-4-yl]methyl}-5,6,7,8-tetrahydro-1,7-naphthyridine-2-carboxamide] | 153 |
| NC(=O)c1cc(-c2cnc(C(F)F)s2)c2c(n1)CN(Cc1ccnc(OC(F)F)c1)CC2 [Example 2-15, 7-{[2-(difluoromethoxy)pyridin-4-yl]methyl}-4-[2-(difluoromethyl)-1,3-thiazol-5-yl]-5,6,7,8-tetrahydro-1,7-naphthyridine-2-carboxamide] | 45.2 |
| Cc1cc(-c2cc(C(N)=O)nc3c2CCN(Cc2ccnc(OC(F)F)c2)C3)sn1 [Example 2-16, 7-{[2-(difluoromethoxy)pyridin-4-yl]methyl}-4-(3-methylisothiazol-5-yl)-5,6,7,8-tetrahydro-1,7-naphthyridine-2-carboxamide] | 26.7 |

| SMILES | IC50 [nM] |
| --- | --- |
| NC(=O)c1cc(-c2ccc(F)cc2F)c2c(n1)CN(CC(=O)N1CCOCC1)CC2 [Example 2-17, 4-(2,4-difluorophenyl)-7-(2-morpholin-4-yl-2-oxoethyl)-5,6,7,8-tetrahydro-1,7-naphthyridine-2-carboxamide] | 101 |
| Cn1nnnc1CN1CCc2c(-c3ccc(F)cc3F)cc(C(N)=O)nc2C1 [Example 2-18, 4-(2,4-difluorophenyl)-7-[(1-methyl-1H-tetrazol-5-yl)methyl]-5,6,7,8-tetrahydro-1,7-naphthyridine-2-carboxamide] | 49.5 |
| NC(=O)c1cc(-n2ccc(C(F)(F)F)n2)c2c(n1)CN(Cc1ccnc(C(F)(F)F)c1)CC2 [Example 2-19, 4-[3-(trifluoromethyl)-1H-pyrazol-1-yl]-7-{[2-(trifluoromethyl)pyridin-4-yl]methyl}-5,6,7,8-tetrahydro-1,7-naphthyridine-2-carboxamide] | 61.6 |
| NC(=O)c1cc(-c2c(F)cc(Cl)cc2F)c2c(n1)CN(Cc1ccnn1C(F)F)CC2 [Example 2-20, 4-(4-chloro-2,6-difluorophenyl)-7-{[1-(difluoromethyl)-1H-pyrazol-5-yl]methyl}-5,6,7,8-tetrahydro-1,7-naphthyridine-2-carboxamide] | 11 |
| Cn1nncc1CN1CCc2c(-c3c(F)cc(F)cc3F)cc(C(N)=O)nc2C1 [Example 2-21, 7-[(1-methyl-1H-1,2,3-triazol-5-yl)methyl]-4-(2,4,6-trifluorophenyl)-5,6,7,8-tetrahydro-1,7-naphthyridine-2-carboxamide] | 33.7 |
| NC(=O)c1cc(-c2ccc(Cl)cn2)c2c(n1)CN(Cc1ccnn1C(F)F)CC2 [Example 2-22, 4-(5-chloropyridin-2-yl)-7-{[1-(difluoromethyl)-1H-pyrazol-5-yl]methyl}-5,6,7,8-tetrahydro-1,7-naphthyridine-2-carboxamide] | 19.4 |
| NC(=O)c1cc(-c2ccc(F)cc2F)c2c(n1)CN(Cc1cc(C(F)(F)F)ncn1)CC2 [Example 2-23, 4-(2,4-difluorophenyl)-7-{[6-(trifluoromethyl)pyrimidin-4-yl]methyl}-5,6,7,8-tetrahydro-1,7-naphthyridine-2-carboxamide] | 5.7 |
| NC(=O)c1cc(-c2cc(C3CC3)ns2)c2c(n1)CN(Cc1ccnc(C3CC3)c1)CC2 [Example 2-24, 4-(3-cyclopropylisothiazol-5-yl)-7-[(2-cyclopropylpyridin-4-yl)methyl]-5,6,7,8-tetrahydro-1,7-naphthyridine-2-carboxamide] | 18.2 |
| N#Cc1cnn(-c2cc(C(N)=O)nc3c2CCN(Cc2ccnc(C(F)(F)F)c2)C3)c1 [Example 2-25, 4-(4-cyano-1H-pyrazol-1-yl)-7-{[2-(trifluoromethyl)pyridin-4-yl]methyl}-5,6,7,8-tetrahydro-1,7-naphthyridine-2-carboxamide] | 40.9 |
| Cc1conc1CN1CCc2c(-c3ccc(F)cc3F)cc(C(N)=O)nc2C1 [Example 2-26, 4-(2,4-difluorophenyl)-7-[(4-methylisoxazol-3-yl)methyl]-5,6,7,8-tetrahydro-1,7-naphthyridine-2-carboxamide] | 13.1 |
| NC(=O)c1cc(-c2cc(C3CC3)ns2)c2c(n1)CN(Cc1ccnc(OC(F)F)c1)CC2 [Example 2-27, 4-(3-cyclopropylisothiazol-5-yl)-7-{[2-(difluoromethoxy)pyridin-4-yl]methyl}-5,6,7,8-tetrahydro-1,7-naphthyridine-2-carboxamide] | 23 |
| CC1(C)CCC(c2cc(C(N)=O)nc3c2CCN(Cc2ccnc(C(F)(F)F)c2)C3)CC1 [Example 4-1, 4-(4,4-dimethylcyclohexyl)-7-((2-(trifluoromethyl)pyridin-4-yl)methyl)-5,6,7,8-tetrahydro-1,7-naphthyridine-2-carboxamide] | 117 |
| NC(=O)c1cc(C2=CCC3(CC2)CC3)c2c(n1)CN(Cc1ccnc(C(F)(F)F)c1)CC2 [Example 4-2, 4-spiro[2.5]oct-5-en-6-yl-7-{[2-(trifluoromethyl)pyridin-4-yl]methyl}-5,6,7,8-tetrahydro-1,7-naphthyridine-2-carboxamide] | 49.7 |
| Cc1cn(-c2cc(C(N)=O)nc3c2CCN(Cc2ccnc(C(F)(F)F)c2)C3)cn1 [Example 5-1, 4-(4-methyl-1H-imidazol-1-yl)-7-((2-(trifluoromethyl)pyridin-4-yl)methyl)-5,6,7,8-tetrahydro-1,7-naphthyridine-2-carboxamide] | 115 |
| C[C@@H]1CN(c2cc(C(N)=O)nc3c2CCN(Cc2ccnc(C(F)(F)F)c2)C3)CCO1 [Example 5-2, (R)-4-(2-methylmorpholino)-7-((2-(trifluoromethyl)pyridin-4-yl)methyl)-5,6,7,8-tetrahydro-1,7-naphthyridine-2-carboxamide] | 79.1 |
